Laboratory results as given in US20030153546A1, “Microbicidal effect of prophyrines in darkness” (priority 1999, published 2003).

tested on: E. coli cells; assay: Inhibition of growth of E. coli cells after 5-minute incubation in the dark (optical density at 650 nm); format: cell-based; settings: 1 μM porphyrine, growth at 37° C
Protocol: (§1) For this, porphyrines of different chemical structures (see drawing) were incubated with E. coli and S. aureus cells in the dark. The porphyrines were added to aqueous suspension comprising an amount of bacterial cells of 10^8 per ml and stored for 5 minutes in the dark. Finally, the amount of porphyrine bonded to the cells was measured depending on the number of washing […] (the washing was carried out by means of physiological solutions) by chemical extraction followed spectrophotofluorimetric determination.
(§2) The survival rate of the bacterial cells after incubation with the different porphyrines was determined by diluting 0.3 ml of the suspension with 2.7 ml of the culture medium and recording the optical density at 650 nm depending on the time. The suspensions were kept at 37° C. The percentual inhibition of growth was calculated with reference to a suspension of comparative cells which had been treated with the same method, however had not been added to the porphyrine.

Compound	inhibition of growth (%) E. coli [%]
CCCCCCCCCCCCCCCCCCCCCC[n+]1ccc(-c2c3nc(c(-c4cc[n+](C)cc4)c4ccc([nH]4)c(-c4cc[n+](C)cc4)c4nc(c(-c5cc[n+](C)cc5)c5ccc2[nH]5)C=C4)C=C3)cc1 [mono-C22]	19.1
CCCCCCCCCC[n+]1ccc(-c2c3nc(c(-c4cc[n+](C)cc4)c4ccc([nH]4)c(-c4cc[n+](C)cc4)c4nc(c(-c5cc[n+](C)cc5)c5ccc2[nH]5)C=C4)C=C3)cc1 [mono-C10]	4.6
C[n+]1ccc(-c2c3nc(c(-c4cc[n+](C)cc4)c4ccc([nH]4)c(-c4cc[n+](C)cc4)c4nc(c(-c5cc[n+](C)cc5)c5ccc2[nH]5)C=C4)C=C3)cc1 [T4MPyP]	0.6
C[n+]1ccc(-c2c3nc(c(-c4cc[n+](C)cc4)c4ccc([nH]4)c(-c4cc[n+](Cc5ccccc5)cc4)c4nc(c(-c5cc[n+](C)cc5)c5ccc2[nH]5)C=C4)C=C3)cc1 [mono-benzyl]	0.1

same assay, conditions: 10 μM porphyrine, growth at 37° C

Compound	inhibition of growth (%) E. coli [%]
CCCCCCCCCCCCCCCCCCCCCC[n+]1ccc(-c2c3nc(c(-c4cc[n+](C)cc4)c4ccc([nH]4)c(-c4cc[n+](C)cc4)c4nc(c(-c5cc[n+](C)cc5)c5ccc2[nH]5)C=C4)C=C3)cc1 [mono-C22]	16.8
CCCCCCCCCC[n+]1ccc(-c2c3nc(c(-c4cc[n+](C)cc4)c4ccc([nH]4)c(-c4cc[n+](C)cc4)c4nc(c(-c5cc[n+](C)cc5)c5ccc2[nH]5)C=C4)C=C3)cc1 [mono-C10]	10.7
C[n+]1ccc(-c2c3nc(c(-c4cc[n+](C)cc4)c4ccc([nH]4)c(-c4cc[n+](C)cc4)c4nc(c(-c5cc[n+](C)cc5)c5ccc2[nH]5)C=C4)C=C3)cc1 [T4MPyP]	3.1
C[n+]1ccc(-c2c3nc(c(-c4cc[n+](C)cc4)c4ccc([nH]4)c(-c4cc[n+](Cc5ccccc5)cc4)c4nc(c(-c5cc[n+](C)cc5)c5ccc2[nH]5)C=C4)C=C3)cc1 [mono-benzyl]	13

tested on: S. aureus cells; assay: Inhibition of growth of S. aureus cells after 5-minute incubation in the dark (optical density at 650 nm); format: cell-based; settings: 1 μM porphyrine, growth at 37° C
Protocol: as §1, §2

Compound	inhibition of growth (%) S. aureus [%]
CCCCCCCCCCCCCCCCCCCCCC[n+]1ccc(-c2c3nc(c(-c4cc[n+](C)cc4)c4ccc([nH]4)c(-c4cc[n+](C)cc4)c4nc(c(-c5cc[n+](C)cc5)c5ccc2[nH]5)C=C4)C=C3)cc1 [mono-C22]	39.9
CCCCCCCCCC[n+]1ccc(-c2c3nc(c(-c4cc[n+](C)cc4)c4ccc([nH]4)c(-c4cc[n+](C)cc4)c4nc(c(-c5cc[n+](C)cc5)c5ccc2[nH]5)C=C4)C=C3)cc1 [mono-C10]	27.8
C[n+]1ccc(-c2c3nc(c(-c4cc[n+](C)cc4)c4ccc([nH]4)c(-c4cc[n+](C)cc4)c4nc(c(-c5cc[n+](C)cc5)c5ccc2[nH]5)C=C4)C=C3)cc1 [T4MPyP]	3.1
C[n+]1ccc(-c2c3nc(c(-c4cc[n+](C)cc4)c4ccc([nH]4)c(-c4cc[n+](Cc5ccccc5)cc4)c4nc(c(-c5cc[n+](C)cc5)c5ccc2[nH]5)C=C4)C=C3)cc1 [mono-benzyl]	1.6

same assay, conditions: 10 μM porphyrine, growth at 37° C

Compound	inhibition of growth (%) S. aureus [%]
CCCCCCCCCCCCCCCCCCCCCC[n+]1ccc(-c2c3nc(c(-c4cc[n+](C)cc4)c4ccc([nH]4)c(-c4cc[n+](C)cc4)c4nc(c(-c5cc[n+](C)cc5)c5ccc2[nH]5)C=C4)C=C3)cc1 [mono-C22]	70.1
CCCCCCCCCC[n+]1ccc(-c2c3nc(c(-c4cc[n+](C)cc4)c4ccc([nH]4)c(-c4cc[n+](C)cc4)c4nc(c(-c5cc[n+](C)cc5)c5ccc2[nH]5)C=C4)C=C3)cc1 [mono-C10]	50
C[n+]1ccc(-c2c3nc(c(-c4cc[n+](C)cc4)c4ccc([nH]4)c(-c4cc[n+](C)cc4)c4nc(c(-c5cc[n+](C)cc5)c5ccc2[nH]5)C=C4)C=C3)cc1 [T4MPyP]	7.8
C[n+]1ccc(-c2c3nc(c(-c4cc[n+](C)cc4)c4ccc([nH]4)c(-c4cc[n+](Cc5ccccc5)cc4)c4nc(c(-c5cc[n+](C)cc5)c5ccc2[nH]5)C=C4)C=C3)cc1 [mono-benzyl]	25

tested on: S. aureus cells; assay: Recovery of porphyrine bonded to S. aureus cells after dark incubation and washing steps; format: cell-based; settings: 1 μM porphyrine, 5 minutes in the dark, 1 washing step
Protocol: as §1

Compound	recovery (nmol/mg protein) 1 washing step [nmol/mg protein]
CCCCCCCCCCCCCCCCCCCCCC[n+]1ccc(-c2c3nc(c(-c4cc[n+](C)cc4)c4ccc([nH]4)c(-c4cc[n+](C)cc4)c4nc(c(-c5cc[n+](C)cc5)c5ccc2[nH]5)C=C4)C=C3)cc1 [mono-C22]	5.65 ± 0.13
CCCCCCCCCC[n+]1ccc(-c2c3nc(c(-c4cc[n+](C)cc4)c4ccc([nH]4)c(-c4cc[n+](C)cc4)c4nc(c(-c5cc[n+](C)cc5)c5ccc2[nH]5)C=C4)C=C3)cc1 [mono-C10]	5.70 ± 0.54
C[n+]1ccc(-c2c3nc(c(-c4cc[n+](C)cc4)c4ccc([nH]4)c(-c4cc[n+](C)cc4)c4nc(c(-c5cc[n+](C)cc5)c5ccc2[nH]5)C=C4)C=C3)cc1 [T4MPyP]	0.10 ± 0.01

same assay, conditions: 1 μM porphyrine, 5 minutes in the dark, 3 washing steps

Compound	recovery (nmol/mg protein) 3 washing steps [nmol/mg protein]
CCCCCCCCCCCCCCCCCCCCCC[n+]1ccc(-c2c3nc(c(-c4cc[n+](C)cc4)c4ccc([nH]4)c(-c4cc[n+](C)cc4)c4nc(c(-c5cc[n+](C)cc5)c5ccc2[nH]5)C=C4)C=C3)cc1 [mono-C22]	4.95 ± 0.30
CCCCCCCCCC[n+]1ccc(-c2c3nc(c(-c4cc[n+](C)cc4)c4ccc([nH]4)c(-c4cc[n+](C)cc4)c4nc(c(-c5cc[n+](C)cc5)c5ccc2[nH]5)C=C4)C=C3)cc1 [mono-C10]	4.09 ± 0.13
C[n+]1ccc(-c2c3nc(c(-c4cc[n+](C)cc4)c4ccc([nH]4)c(-c4cc[n+](C)cc4)c4nc(c(-c5cc[n+](C)cc5)c5ccc2[nH]5)C=C4)C=C3)cc1 [T4MPyP]	0.11 ± 0.01

same assay, conditions: 1 μM porphyrine, 5 minutes in the dark, after 3 washing steps

Compound	% bonded after 3 washing steps [%]
CCCCCCCCCCCCCCCCCCCCCC[n+]1ccc(-c2c3nc(c(-c4cc[n+](C)cc4)c4ccc([nH]4)c(-c4cc[n+](C)cc4)c4nc(c(-c5cc[n+](C)cc5)c5ccc2[nH]5)C=C4)C=C3)cc1 [mono-C22]	77.5
CCCCCCCCCC[n+]1ccc(-c2c3nc(c(-c4cc[n+](C)cc4)c4ccc([nH]4)c(-c4cc[n+](C)cc4)c4nc(c(-c5cc[n+](C)cc5)c5ccc2[nH]5)C=C4)C=C3)cc1 [mono-C10]	57.4
C[n+]1ccc(-c2c3nc(c(-c4cc[n+](C)cc4)c4ccc([nH]4)c(-c4cc[n+](C)cc4)c4nc(c(-c5cc[n+](C)cc5)c5ccc2[nH]5)C=C4)C=C3)cc1 [T4MPyP]	16.2

same assay, conditions: 1 μM porphyrine, 5 minutes in the dark, no washing

Compound	recovery (nmol/mg protein) no washing [nmol/mg protein]
CCCCCCCCCCCCCCCCCCCCCC[n+]1ccc(-c2c3nc(c(-c4cc[n+](C)cc4)c4ccc([nH]4)c(-c4cc[n+](C)cc4)c4nc(c(-c5cc[n+](C)cc5)c5ccc2[nH]5)C=C4)C=C3)cc1 [mono-C22]	6.39 ± 0.40
CCCCCCCCCC[n+]1ccc(-c2c3nc(c(-c4cc[n+](C)cc4)c4ccc([nH]4)c(-c4cc[n+](C)cc4)c4nc(c(-c5cc[n+](C)cc5)c5ccc2[nH]5)C=C4)C=C3)cc1 [mono-C10]	7.13 ± 0.25
C[n+]1ccc(-c2c3nc(c(-c4cc[n+](C)cc4)c4ccc([nH]4)c(-c4cc[n+](C)cc4)c4nc(c(-c5cc[n+](C)cc5)c5ccc2[nH]5)C=C4)C=C3)cc1 [T4MPyP]	0.68 ± 0.05

tested on: E. coli cells; assay: Recovery of porphyrine bonded to E. coli cells after dark incubation and washing steps; format: cell-based; settings: 1 μM porphyrine, 5 minutes, 1 washing step
Protocol: as §1

Compound	recovery (nmol/mg protein) 1 washing step [nmol/mg protein]
CCCCCCCCCCCCCCCCCCCCCC[n+]1ccc(-c2c3nc(c(-c4cc[n+](C)cc4)c4ccc([nH]4)c(-c4cc[n+](C)cc4)c4nc(c(-c5cc[n+](C)cc5)c5ccc2[nH]5)C=C4)C=C3)cc1 [mono-C22]	2.60 ± 0.04
CCCCCCCCCC[n+]1ccc(-c2c3nc(c(-c4cc[n+](C)cc4)c4ccc([nH]4)c(-c4cc[n+](C)cc4)c4nc(c(-c5cc[n+](C)cc5)c5ccc2[nH]5)C=C4)C=C3)cc1 [mono-C10]	2.78 ± 0.53
C[n+]1ccc(-c2c3nc(c(-c4cc[n+](C)cc4)c4ccc([nH]4)c(-c4cc[n+](C)cc4)c4nc(c(-c5cc[n+](C)cc5)c5ccc2[nH]5)C=C4)C=C3)cc1 [T4MPyP]	0.19 ± 0.04
C[n+]1ccc(-c2c3nc(c(-c4cc[n+](C)cc4)c4ccc([nH]4)c(-c4cc[n+](Cc5ccccc5)cc4)c4nc(c(-c5cc[n+](C)cc5)c5ccc2[nH]5)C=C4)C=C3)cc1 [mono-benzyl]	1.67 ± 0.06

same assay, conditions: 1 μM porphyrine, 5 minutes, 3 washing steps

Compound	recovery (nmol/mg protein) 3 washing steps [nmol/mg protein]
CCCCCCCCCCCCCCCCCCCCCC[n+]1ccc(-c2c3nc(c(-c4cc[n+](C)cc4)c4ccc([nH]4)c(-c4cc[n+](C)cc4)c4nc(c(-c5cc[n+](C)cc5)c5ccc2[nH]5)C=C4)C=C3)cc1 [mono-C22]	3.04 ± 0.34
CCCCCCCCCC[n+]1ccc(-c2c3nc(c(-c4cc[n+](C)cc4)c4ccc([nH]4)c(-c4cc[n+](C)cc4)c4nc(c(-c5cc[n+](C)cc5)c5ccc2[nH]5)C=C4)C=C3)cc1 [mono-C10]	1.48 ± 0.38
C[n+]1ccc(-c2c3nc(c(-c4cc[n+](C)cc4)c4ccc([nH]4)c(-c4cc[n+](C)cc4)c4nc(c(-c5cc[n+](C)cc5)c5ccc2[nH]5)C=C4)C=C3)cc1 [T4MPyP]	0.05 ± 0.01
C[n+]1ccc(-c2c3nc(c(-c4cc[n+](C)cc4)c4ccc([nH]4)c(-c4cc[n+](Cc5ccccc5)cc4)c4nc(c(-c5cc[n+](C)cc5)c5ccc2[nH]5)C=C4)C=C3)cc1 [mono-benzyl]	0.71 ± 0.08

same assay, conditions: 1 μM porphyrine, 5 minutes, after 3 washing steps

Compound	% bonded after 3 washing steps [%]
CCCCCCCCCCCCCCCCCCCCCC[n+]1ccc(-c2c3nc(c(-c4cc[n+](C)cc4)c4ccc([nH]4)c(-c4cc[n+](C)cc4)c4nc(c(-c5cc[n+](C)cc5)c5ccc2[nH]5)C=C4)C=C3)cc1 [mono-C22]	59.4
CCCCCCCCCC[n+]1ccc(-c2c3nc(c(-c4cc[n+](C)cc4)c4ccc([nH]4)c(-c4cc[n+](C)cc4)c4nc(c(-c5cc[n+](C)cc5)c5ccc2[nH]5)C=C4)C=C3)cc1 [mono-C10]	40.4
C[n+]1ccc(-c2c3nc(c(-c4cc[n+](C)cc4)c4ccc([nH]4)c(-c4cc[n+](C)cc4)c4nc(c(-c5cc[n+](C)cc5)c5ccc2[nH]5)C=C4)C=C3)cc1 [T4MPyP]	11.4
C[n+]1ccc(-c2c3nc(c(-c4cc[n+](C)cc4)c4ccc([nH]4)c(-c4cc[n+](Cc5ccccc5)cc4)c4nc(c(-c5cc[n+](C)cc5)c5ccc2[nH]5)C=C4)C=C3)cc1 [mono-benzyl]	28.2

same assay, conditions: 1 μM porphyrine, 5 minutes, no washing

Compound	recovery (nmol/mg protein) no washing [nmol/mg protein]
CCCCCCCCCCCCCCCCCCCCCC[n+]1ccc(-c2c3nc(c(-c4cc[n+](C)cc4)c4ccc([nH]4)c(-c4cc[n+](C)cc4)c4nc(c(-c5cc[n+](C)cc5)c5ccc2[nH]5)C=C4)C=C3)cc1 [mono-C22]	5.12 ± 0.46
CCCCCCCCCC[n+]1ccc(-c2c3nc(c(-c4cc[n+](C)cc4)c4ccc([nH]4)c(-c4cc[n+](C)cc4)c4nc(c(-c5cc[n+](C)cc5)c5ccc2[nH]5)C=C4)C=C3)cc1 [mono-C10]	3.66 ± 0.071
C[n+]1ccc(-c2c3nc(c(-c4cc[n+](C)cc4)c4ccc([nH]4)c(-c4cc[n+](C)cc4)c4nc(c(-c5cc[n+](C)cc5)c5ccc2[nH]5)C=C4)C=C3)cc1 [T4MPyP]	0.44 ± 0.04
C[n+]1ccc(-c2c3nc(c(-c4cc[n+](C)cc4)c4ccc([nH]4)c(-c4cc[n+](Cc5ccccc5)cc4)c4nc(c(-c5cc[n+](C)cc5)c5ccc2[nH]5)C=C4)C=C3)cc1 [mono-benzyl]	2.52 ± 0.13
